Results taken from patent publication US20230248626A1, “Compositions Comprising (Bio)-Alkanediols” (Symrise AG, priority 0001, published 2023).
In brackets after ≈: the same amount, converted by molar mass.

How the values were obtained:
[1] = Sensory evaluation on the backside of the hand (spreading, fatty/greasy skin feel, absorption), untrained panellists; conditions: for Absorption/remaining residue with alkanediol: scale 1 to 5
Method: For evaluating the sensory behaviour, liquid lipophilic components specified in the following table were blended with 1,2-heptanediol or 2,3-heptanediol or a mixture of 1,2-heptanediol and 2,3-heptanediol or 1,2-octanediol or 2,3-octanediol or a mixture of 1,2-octanediol and 2,3-octanediol (formulation) in a ratio of 85:15 and assessed by untrained panellists in comparison to the liquid lipophilic component without addition of the specified alkanediols (placebo).
The test procedure was carried as follows: For evaluating the sensory behaviour of 1,2-alkanediols and/or 2,3-alkanediols in combination with different liquid lipophilic components, oil components specified in the following table were blended with a 1,2-alkanediol or a 2,3-alkanediol or a mixture including a 1,2-alkanediol and a 2,3-alkanediol in a ratio as specified in Table 53 and assessed by untrained panellists in comparison to the liquid lipophilic component without addition of the 1,2-alkanediol or 2,3-alkanediol or the mixture including a 1,2-alkanediol and 2,3-alkanediol (placebo).
Test Procedure: • Hands were pre-washed with liquid soap by following a defined procedure; 30 μl of corresponding sample was applied on the backside of each hand (randomized); • After 30 s the spreading behaviour of the respective formulation on skin was evaluated versus the respective oil component without 1,2-heptanediol on a scale from 1 to 5 (1=low spreading; 5=high spreading); • The samples were distributed with the fingertips of middle and forefinger with 2×5 cycles; • After 2 minutes, the fatty/greasy skin feel was evaluated on a scale from 1 to 5 (1=low fatty/greasy skin feel; 5=high fatty/greasy skin feel); • Furthermore the applicants were asked to assess the absorption, i.e. the impression of amount of remaining residue on the skin on a scale from 1 to 5 (1=low absorption; 5=high absorption).

[2] = tested on: Escherichia coli; assay: MIC test (growth inhibition, 96 well plates, OD); assay type: cell-based; conditions: read-out: Minimum Inhibitory Concentration (MIC)
Method: (§1) The MIC test is a test on growth inhibition. Estimation of Minimum Inhibitory Concentration (MIC) is executed in 96 well plates. Through the comparison of bacterial growth with positive and negative controls via optical density (OD), different concentrations of given test substances are evaluated.
(§2) Bacteria are cultivated under adjusted conditions based on information of the German Collection of Microorganisms and Cell Cultures (DSMZ) and stored in 50% Glycerol prior to use. Afterwards, the following method was applied: Adding growth medium (according to microorganism) to each well of the microplate. Adding the test-substances in different concentrations, positive controls (water controls only with medium) and negative controls (benchmarks according to organism). Adding the microorganism in a concentration of 10^6 CFU/ml (CFU=colony forming units). Incubation of the microplates at appropriate conditions.
(§3) According to resulting growth, substance concentrations are labelled either as inhibiting or not and MIC is defined as the lowest concentration where a complete growth inhibition is visible. Experiments at concentration limits (highest concentration labelled as growth and lowest concentration labelled as inhibiting) are performed at least twice.

[3] = tested on: Corynebacterium jeikeium; assay: MIC test (growth inhibition, 96 well plates, OD); assay type: cell-based; conditions: read-out: Minimum Inhibitory Concentration (MIC)
Method: as §1, §2, §3

[4] = tested on: Staphylococcus hominis; assay: MIC test (growth inhibition, 96 well plates, OD); assay type: cell-based; conditions: read-out: Minimum Inhibitory Concentration (MIC)
Method: as §1, §2, §3

[5] = tested on: Propionibacterium acnes; assay: MIC test (growth inhibition, 96 well plates, OD); assay type: cell-based; conditions: Cutibacterium acnes; read-out: Minimum Inhibitory Concentration (MIC)
Method: as §1, §2, §3

[6] = tested on: Candida albicans; assay: MIC test (growth inhibition, 96 well plates, OD); assay type: cell-based; conditions: read-out: Minimum Inhibitory Concentration (MIC)
Method: as §1, §2, §3

[7] = tested on: Staphylococcus aureus; assay: MIC test (growth inhibition, 96 well plates, OD); assay type: cell-based; conditions: read-out: Minimum Inhibitory Concentration (MIC)
Method: as §1, §2, §3

[8] = tested on: Aspergillus brasiliensis (AB); assay: Preservation efficacy test (PET), European Pharmacopoeia 5.1.3; assay type: cell-based
Method: (§4) The preservation efficacy test (PET) was performed in accordance with European Pharmacopoeia § 5.1.3: The test is a reference European Pharmacopoeia method, that is to be used to evaluate the preservation system of a cosmetic or pharmaceutical preparation. The test consists of challenging the preparation under test, with prescribed inoculums of suitable microorganisms. The preservation porperties of the preparation are adequate if, in the conditions of the test, there is a significant fall or no increase, as appropriate, in the number of microorganisms in the inoculated preparations after the time prescribed.
(§5) The test microorganisms which were used, are the following:
(§6) Pseudomonas aeruginosa (PA) (bacterium); Staphylococcus aureus (SA) (bacterium); Escherichia coli (EC) (bacterium); Candida albicans (CA) (yeast); and Aspergillus brasiliensis (AB) (fungus).

[9] = tested on: Candida albicans (CA); assay: as above; assay type: cell-based
Method: as §4, §5, §6

CCCCCC(O)CO (stereo not drawn) [1,2-heptanediol]
Absorption/remaining residue Delta ([1]; blend with Argan Oil vs without): 1 | Absorption/remaining residue with alkanediol ([1]; blend with Argan Oil): 2.8 | Absorption/remaining residue Delta ([1]; blend with Avocado Oil vs without): 1.2 | Absorption/remaining residue with alkanediol ([1]; blend with Avocado Oil): 2.6 | Absorption/remaining residue Delta ([1]; blend with Butyrospermum Parkii (Shea) Butter vs without): 1.5 | Absorption/remaining residue with alkanediol ([1]; blend with Butyrospermum Parkii (Shea) Butter): 2.7 | Absorption/remaining residue Delta ([1]; blend with Cacao butter vs without): 0 | Absorption/remaining residue with alkanediol ([1]; blend with Cacao butter): 3.6 | Absorption/remaining residue Delta ([1]; blend with Caprylic Capric Triglyceride (neutral oil), rows r50-r56, vs without): 0.6 | Absorption/remaining residue with alkanediol ([1]; blend with Caprylic Capric Triglyceride (neutral oil), rows r50-r56): 2.7 | Absorption/remaining residue Delta ([1]; blend with Castor Oil vs without): 0.4 | Absorption/remaining residue with alkanediol ([1]; blend with Castor Oil): 4 | Absorption/remaining residue Delta ([1]; blend with Cetearyl Nonanoate (SymMollient S), row r161, vs without): 1.2 | Absorption/remaining residue with alkanediol ([1]; blend with Cetearyl Nonanoate (SymMollient S), row r161): 2 | Absorption/remaining residue Delta ([1]; blend with Cetearyl Nonanoate, rows r199-r201, vs without): 1.6 | Absorption/remaining residue with alkanediol ([1]; blend with Cetearyl Nonanoate, rows r199-r201): 3.2 | Absorption/remaining residue Delta ([1]; blend with Chlorella oil (biotech) vs without): 0.2 | Absorption/remaining residue with alkanediol ([1]; blend with Chlorella oil (biotech)): 3 | Absorption/remaining residue Delta ([1]; blend with Coconut Oil vs without): 1.4 | Absorption/remaining residue with alkanediol ([1]; blend with Coconut Oil): 2 | Absorption/remaining residue Delta ([1]; blend with Ethylhexyl Methoxycinnamate (Neo Heliopan AV) vs without): 0.5 | Absorption/remaining residue with alkanediol ([1]; blend with Ethylhexyl Methoxycinnamate (Neo Heliopan AV)): 3 | Absorption/remaining residue Delta ([1]; blend with Ethylhexyl Salicylate (Neo Heliopan OS) vs without): 1.3 | Absorption/remaining residue with alkanediol ([1]; blend with Ethylhexyl Salicylate (Neo Heliopan OS)): 2.2 | Absorption/remaining residue Delta ([1]; blend with Grapeseed Oil vs without): 0.2 | Absorption/remaining residue with alkanediol ([1]; blend with Grapeseed Oil): 2.8 | Absorption/remaining residue Delta ([1]; blend with Helianthus Annuus (Sunflower) Seed Oil vs without): 1.3 | Absorption/remaining residue with alkanediol ([1]; blend with Helianthus Annuus (Sunflower) Seed Oil): 2 | Absorption/remaining residue Delta ([1]; blend with Hexyldecanol (Eutanol G) vs without): 0.2 | Absorption/remaining residue with alkanediol ([1]; blend with Hexyldecanol (Eutanol G)): 2.7 | Absorption/remaining residue Delta ([1]; blend with Homosalate (Neo Heliopan HMS) vs without): 0.3 | Absorption/remaining residue with alkanediol ([1]; blend with Homosalate (Neo Heliopan HMS)): 2.5 | Absorption/remaining residue Delta ([1]; blend with Isoamyl p-Methoxycinnamate (Neo Heliopan E 1000) vs without): 1.7 | Absorption/remaining residue with alkanediol ([1]; blend with Isoamyl p-Methoxycinnamate (Neo Heliopan E 1000)): 2.5 | Absorption/remaining residue Delta ([1]; blend with Microalgae oil vs without): 1.2 | Absorption/remaining residue with alkanediol ([1]; blend with Microalgae oil): 2.5 | Absorption/remaining residue Delta ([1]; blend with Octocrylene (Neo Heliopan 303), row r184 (UV filter), vs without): 1.3 | Absorption/remaining residue with alkanediol ([1]; blend with Octocrylene (Neo Heliopan 303), row r184 (UV filter)): 2.7 | Absorption/remaining residue Delta ([1]; blend with Octocrylene (Neo Heliopan 303), vs without): 0.5 | Absorption/remaining residue with alkanediol ([1]; blend with Octocrylene (Neo Heliopan 303)): 3.5 | Absorption/remaining residue Delta ([1]; blend with Olive Oil vs without): 1.6 | Absorption/remaining residue with alkanediol ([1]; blend with Olive Oil): 2.4 | Absorption/remaining residue Delta ([1]; blend with Propanediol Dicaprylate/Dicaprate (Symollient PDCC) vs without): 0.1 | Absorption/remaining residue with alkanediol ([1]; blend with Propanediol Dicaprylate/Dicaprate (Symollient PDCC)): 2.4 | Absorption/remaining residue Delta ([1]; blend with Prunus Amygdalus Dulcis (Sweet Almond) Oil vs without): 1.5 | Absorption/remaining residue with alkanediol ([1]; blend with Prunus Amygdalus Dulcis (Sweet Almond) Oil): 2.2 | Absorption/remaining residue Delta ([1]; blend with Simmondsia Chinensis (Jojoba) Seed Oil vs without): 1.2 | Absorption/remaining residue with alkanediol ([1]; blend with Simmondsia Chinensis (Jojoba) Seed Oil): 2.5 | MIC [2]: 5000 µg/mL (≈ 37.8 mM) | MIC [3]: 7500 µg/mL (≈ 56.7 mM) | MIC [4]: 10000 µg/mL (≈ 75.6 mM) | MIC [5]: > 5000 µg/mL | MIC [6]: 5000 µg/mL (≈ 37.8 mM) | MIC [7]: 10000 µg/mL (≈ 75.6 mM) | number of microorganisms after 2 days ([8]; 0.1% in shampoo): 240,000 | number of microorganisms after 7 days ([8]; 0.1% in shampoo): 220,000 | number of microorganisms after 14 days ([8]; 0.1% in shampoo): 150,000 | number of microorganisms after 28 days ([8]; 0.1% in shampoo): 19,000 | number of microorganisms after 2 days ([8]; 0.2% in o/w emulsion): 2,200,000 | number of microorganisms after 7 days ([8]; 0.2% in o/w emulsion): 2,000,000 | number of microorganisms after 14 days ([8]; 0.2% in o/w emulsion): 2,500,000 | number of microorganisms after 28 days ([8]; 0.2% in o/w emulsion): 2,100,000 | number of microorganisms after 2 days ([8]; 0.4% in o/w emulsion): 1,000,000 | number of microorganisms after 7 days ([8]; 0.4% in o/w emulsion): 180,000 | number of microorganisms after 14 days ([8]; 0.4% in o/w emulsion): 150,000 | number of microorganisms after 28 days ([8]; 0.4% in o/w emulsion): 1 | number of microorganisms after 2 days ([9]; 0.1% in shampoo): 220,000 | number of microorganisms after 7 days ([9]; 0.1% in shampoo): 62,000 | number of microorganisms after 14 days ([9]; 0.1% in shampoo): 8,100 | number of microorganisms after 28 days ([9]; 0.1% in shampoo): 1 | number of microorganisms after 2 days ([9]; 0.2% in o/w emulsion): 1,300,000 | number of microorganisms after 7 days ([9]; 0.2% in o/w emulsion): 1,600,000 | number of microorganisms after 14 days ([9]; 0.2% in o/w emulsion): 1,200,000 | number of microorganisms after 28 days ([9]; 0.2% in o/w emulsion): 620,000 | number of microorganisms after 2 days ([9]; 0.4% in o/w emulsion): 71,000 | number of microorganisms after 7 days ([9]; 0.4% in o/w emulsion): 2,800 | number of microorganisms after 14 days ([9]; 0.4% in o/w emulsion): 1 | number of microorganisms after 28 days ([9]; 0.4% in o/w emulsion): 1
